Patent publication US20140213513A1 (Sanofi, priority 2012, published 2014)
pEC50: −log10 of the molar value. *1 amine or outer side, *2 acyl side, *3 side chain or, on linkers, in order; H or OH if unused. Where a SMILES comes first, the peptide text is derived from it. Side-chain parts run from the residue outwards. [ ]: non-standard residue; d: D form. The star is where a group is joined. γGlu = O=C(O)[C@H](CCC(=O)[*:2])N[*:1]; Palmitoyl = CCCCCCCCCCCCCCCC(=O)*; Aib = CC(C)(N)C(=O)O

How the values were obtained:
Assay type in all cases: cell-based
Settings in all cases: Table 7; cAMP formation
[1] = target: T1, human GLP-1 receptor (hGLP-1 R) (Homo sapiens, UniProt P43220); test: cAMP response of HEK-293 cells stably expressing human GLP-1 receptor (HTRF)
T1 construct: expressed in transfected cells
T1 sequence (P43220 24-463): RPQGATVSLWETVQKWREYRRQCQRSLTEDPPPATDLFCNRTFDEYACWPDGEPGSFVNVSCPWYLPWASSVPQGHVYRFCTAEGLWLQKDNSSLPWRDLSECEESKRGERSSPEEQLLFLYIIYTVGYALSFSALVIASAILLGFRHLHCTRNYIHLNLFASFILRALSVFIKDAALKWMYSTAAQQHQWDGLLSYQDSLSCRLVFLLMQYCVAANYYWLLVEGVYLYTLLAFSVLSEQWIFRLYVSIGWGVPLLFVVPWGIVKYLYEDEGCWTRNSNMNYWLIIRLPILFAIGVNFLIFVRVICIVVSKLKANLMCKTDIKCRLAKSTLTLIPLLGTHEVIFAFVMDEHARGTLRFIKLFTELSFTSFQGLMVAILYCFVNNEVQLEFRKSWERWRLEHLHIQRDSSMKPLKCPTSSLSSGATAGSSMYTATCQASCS
Outline: (§1)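 HEK-293 cells stably expressing the receptor were resuspended at 400000 cells/ml in HBSS/20 mM HEPES/0.1% BSA buffer with 2 mM IBMX. Cells were stimulated with compound for 30 min at room temperature. Intracellular cAMP was measured by HTRF.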

[2] = target: T2, human GIP receptor (hGIP R) (Homo sapiens, UniProt P48546); test: cAMP response of HEK-293 cells stably expressing human GIP receptor (HTRF)
T2 construct: expressed in transfected cells
T2 sequence (P48546 22-466): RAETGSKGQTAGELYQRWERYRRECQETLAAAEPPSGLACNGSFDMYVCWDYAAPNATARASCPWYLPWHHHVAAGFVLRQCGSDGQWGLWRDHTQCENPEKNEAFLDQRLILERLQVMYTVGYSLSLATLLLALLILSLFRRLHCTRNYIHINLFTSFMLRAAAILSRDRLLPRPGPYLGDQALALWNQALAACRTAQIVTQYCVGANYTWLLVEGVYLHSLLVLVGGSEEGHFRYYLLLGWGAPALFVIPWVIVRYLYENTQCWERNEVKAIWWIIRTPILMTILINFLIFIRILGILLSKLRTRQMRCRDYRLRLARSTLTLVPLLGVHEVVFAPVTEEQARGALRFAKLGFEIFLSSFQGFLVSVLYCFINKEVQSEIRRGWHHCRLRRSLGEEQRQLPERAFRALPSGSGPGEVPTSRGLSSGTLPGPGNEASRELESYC
Outline: as §1

[3] = target: T3, human glucagon receptor (hGLUC R) (Homo sapiens, UniProt P47871); test: cAMP response of HEK-293 cells stably expressing human glucagon receptor (HTRF)
T3 construct: expressed in transfected cells
T3 sequence (P47871 26-477): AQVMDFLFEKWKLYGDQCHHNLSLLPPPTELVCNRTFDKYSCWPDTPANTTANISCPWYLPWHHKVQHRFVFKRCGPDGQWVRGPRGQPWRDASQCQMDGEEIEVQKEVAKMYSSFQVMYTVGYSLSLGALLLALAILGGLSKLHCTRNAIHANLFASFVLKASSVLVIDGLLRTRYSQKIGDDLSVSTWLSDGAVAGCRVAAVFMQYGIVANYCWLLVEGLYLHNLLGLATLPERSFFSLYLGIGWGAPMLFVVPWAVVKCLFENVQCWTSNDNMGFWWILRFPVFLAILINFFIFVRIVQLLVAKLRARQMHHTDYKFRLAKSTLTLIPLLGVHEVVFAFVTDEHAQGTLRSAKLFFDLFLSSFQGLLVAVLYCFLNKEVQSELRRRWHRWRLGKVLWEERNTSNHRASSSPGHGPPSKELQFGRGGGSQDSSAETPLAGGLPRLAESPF
Outline: as §1

SMILES	pEC50 [1]	pEC50 [2]	pEC50 [3]
CCCCCCCCCCCCCCCC(=O)NCCCC[C@H](NC(=O)[C@H](CCC(N)=O)NC(=O)[C@@H](NC(=O)[C@H](CO)NC(=O)[C@H](CC(C)C)NC(=O)[C@H](CC(=O)O)NC(=O)[C@H](CO)NC(=O)[C@@H](NC(=O)[C@H](Cc1ccccc1)NC(=O)[C@@H](NC(=O)CNC(=O)[C@H](CCC(N)=O)NC(=O)C(C)(C)NC(=O)[C@@H](N)Cc1ccc(O)cc1)[C@@H](C)O)[C@@H](C)O)[C@@H](C)CC)C(=O)N[C@@H](CCC(=O)O)C(=O)N[C@@H](CCC(N)=O)C(=O)N[C@@H](CCCNC(=N)N)C(=O)N[C@@H](C)C(=O)N[C@@H](C)C(=O)NC(C)(C)C(=O)N[C@@H](CCC(=O)O)C(=O)N[C@@H](Cc1ccccc1)C(=O)N[C@H](C(=O)N[C@@H](CCC(=O)O)C(=O)N[C@@H](Cc1c[nH]c2ccccc12)C(=O)N[C@@H](CC(C)C)C(=O)N[C@@H](CCCCN)C(=O)N[C@@H](CC(N)=O)C(=O)N[C@H](C(=O)NCC(=O)N1CCC[C@H]1C(=O)N[C@@H](CO)C(=O)N[C@@H](CO)C(=O)NCC(=O)N[C@@H](C)C(=O)N1CCC[C@H]1C(=O)N1CCC[C@H]1C(=O)N1CCC[C@H]1C(=O)N[C@@H](CO)C(N)=O)[C@@H](C)O)[C@@H](C)CC [SEQ ID NO: 21, Y-Aib-Q-G-T-F-T-S-D-L-S-I-Q-K(x53)-E-Q-R-A-A-Aib-E-F-I-E-W-L-K-N-T-G-P-S-S-G-A-P-P-P-S-NH2] (H-Y[Aib]QGTFTSDLSIQK(Palmitoyl)EQRAA[Aib]EFIEWLKNTGPSSGAPPPS-NH2)	10.43	9.72	9.17
CCCCCCCCCCCCCCCC(=O)N[C@@H](CCC(=O)NCCCC[C@H](NC(=O)[C@H](CCC(N)=O)NC(=O)[C@H](CCCCN)NC(=O)[C@H](CO)NC(=O)[C@H](CC(C)C)NC(=O)[C@H](CC(=O)O)NC(=O)[C@H](CO)NC(=O)[C@@H](NC(=O)[C@H](Cc1ccccc1)NC(=O)[C@@H](NC(=O)CNC(=O)[C@H](CCC(N)=O)NC(=O)C(C)(C)NC(=O)[C@@H](N)Cc1ccc(O)cc1)[C@@H](C)O)[C@@H](C)O)C(=O)N[C@@H](CC(=O)O)C(=O)N[C@@H](CO)C(=O)N[C@@H](CCCNC(=N)N)C(=O)N[C@@H](C)C(=O)N[C@@H](C)C(=O)N[C@@H](CCC(N)=O)C(=O)N[C@@H](CC(=O)O)C(=O)N[C@@H](Cc1ccccc1)C(=O)N[C@H](C(=O)N[C@@H](CCC(=O)O)C(=O)N[C@@H](Cc1c[nH]c2ccccc12)C(=O)N[C@@H](CC(C)C)C(=O)N[C@@H](CCCCN)C(=O)N[C@@H](C)C(=O)NCC(=O)NCC(=O)N1CCC[C@H]1C(=O)N[C@@H](CO)C(=O)N[C@@H](CO)C(=O)NCC(=O)N[C@@H](C)C(=O)N1CCC[C@H]1C(=O)N1CCC[C@H]1C(=O)N1CCC[C@H]1C(=O)N[C@@H](CO)C(N)=O)[C@@H](C)CC)C(=O)O [SEQ ID NO: 66, Y-Aib-Q-G-T-F-T-S-D-L-S-K-Q-K(yE-x53)-DSRAAQDFIEWLKAGGPSSGAPPPS-NH2] (H-Y[Aib]QGTFTSDLSKQK([γGlu-Palmitoyl])DSRAAQDFIEWLKAGGPSSGAPPPS-NH2)	11.44	10.08	11.28
